Assay results from patent US10092657B2, “Opsonized β-glucan preparations and methods” (Biothera, Inc., priority 2011, dated 2018).

Key:
[1] = system: human neutrophils; assay: Binding of PGG β-glucan to human neutrophils (BfD IV staining, flow cytometry); type: cell-based
Experimental: Enriched neutrophils or PBMC were resuspended at 1×10^6 cells/mL in RPMI 1640 supplemented with 10% serum. PGG β-glucan at hexose concentrations 100 μg/mL, 200 μg/mL, or 400 μg/mL were added to neutrophils or PBMC and incubated in a 37° C., 5% CO2 humidified incubator for two hours. After incubation, cells were washed twice with FACS buffer (HBSS supplemented with 1% FBS and 0.1% sodium azide) to remove any unbound β-glucan, and subsequently treated with Fc block (Miltenyi Biotec, Auburn, Calif.). […] Cells were then incubated with FITC-conjugated F(ab′)2 goat anti-mouse IgM for 30 minutes at 4° C. and washed once with cold FACS buffer before fixing with 1% paraformaldehyde. In early optimization experiments, neutrophils, monocytes, and T cells were identified by staining with fluorescently labeled anti-CD 15, anti-CD 14, or anti-CD3 Abs, respectively. Events were collected on a LSRII flow cytometer (BD Biosciences, San Jose, Calif.) and analysis was performed using FLOWJO (Tree Star, Ashland, Oreg.). […] Surface binding of DTAF-conjugated β-glucan was subsequently assessed by flow cytometric analysis. […] The experiments to determine binding of PGG β-glucan at 200 μg/mL to neutrophils or at 100 μg/mL to PBMC were performed as described above with the following changes. For determining serum dependency, PGG β-glucan was incubated with neutrophils or PBMC resuspended in RPMI 1640 containing 2%, 5%, or 10% autologous serum at 37° C. for two hours. For time-course experiments, PGG β-glucan at indicated concentrations was incubated with cells resuspended in 10% autologous serum at 37° C. for 10 minutes, 20 minutes, 60 minutes, or 120 minutes. For temperature dependency experiments, PGG β-glucan at indicated concentrations was incubated with cells resuspended in 10% autologous serum for two hours at 4° C., room temperature, or 37° C.

[2] = system: human neutrophils; assay: Binding of DTAF-labeled PGG β-glucan to human neutrophils, with excess unlabeled competitor; type: cell-based; details: 10 mg/mL unlabeled competitor; 25 μg/mL DTAF-labeled β-glucan
Experimental: In early optimization experiments, neutrophils, monocytes, and T cells were identified by staining with fluorescently labeled anti-CD 15, anti-CD 14, or anti-CD3 Abs, respectively. Events were collected on a LSRII flow cytometer (BD Biosciences, San Jose, Calif.) and analysis was performed using FLOWJO (Tree Star, Ashland, Oreg.). For assessing binding of DTAF-labeled PGG β-glucan to human neutrophils, 25 βg/mL, 100 μg/mL, or 400 μg/mL of labeled β-glucan was added to neutrophils resuspended in RPMI/10% serum, incubated in a 37° C., 5% CO2 humidified incubator for one hour, washed twice with cold FACS buffer, and fixed with 1% paraformaldehyde. Surface binding of DTAF-conjugated β-glucan was subsequently assessed by flow cytometric analysis.

[3] = system: human monocytes; assay: Binding studies on the role of complement proteins in serum, monocytes; type: cell-based
Experimental: Heat-inactivated (HI) serum was prepared by incubating serum in a 56° C. water bath for 30 minutes. […] Treatment of serum with methylamine (MA) was done by incubating serum with 0.67% of methylamine for 2.5 hours at 37° C., followed by three washes with DPBS using Amicon centrifugal filter unit with a 3K MW cut-off (Millipore, Billerica, Mass.). DPBS-treated serum was prepared in the same manner and used as control serum for MA-treated serum. For blocking of factor D in the serum, 166-32 at concentration 20 μg/mL was incubated with serum on ice for 30 minutes, and then used for binding studies. For binding experiments in the presence of EGTA or MgEGTA, serum was incubated with 10 mM EGTA with or without 10 mM MgCl2 for 10 minutes at room temperature. The untreated and EGTA/MgEGTA-treated serum was then used to pre-treat PGG and perform binding studies as described earlier.

[4] = target: T1, iC3b (Homo sapiens, UniProt P01024); assay: ELISA for iC3b deposition on immobilized PGG β-glucan; type: binding; details: 300 μg/mL immobilized
T1 construct: from tissue
Experimental: PGG β-glucan or dextran was immobilized on wells of a 96-well polystyrene plate (COSTAR, Coming, Inc., Lowell, Mass.) by drying the glucans at 50° C. followed by UV cross-linking. The glucan-coated plate was first blocked with 1% BSA before incubation with untreated serum or serum undergone various treatments as described in binding studies, diluted 1:2 with wash buffer (PBS/0.05% Tween-20) for 30 minutes at 37° C. After washing the serum from the plate, the bound iC3b was probed using the anti-iC3b monoclonal antibody followed by biotin-labeled goat anti-mouse IgG Ab. The amount of immobilized biotin-labeled antibody was determined using streptavidin peroxidase and TMB substrate solution (KPL, Gaithersburg, Md.). OD450 of each well was measured with the spectrophotometer SpectraMAX 250 (Molecular Devices, Sunnyvale, Calif.). Fold change was calculated as OD450 of wells containing immobilized β-glucan divided by OD450 of wells containing no β-glucan, both incubated in the presence of treated or untreated serum.

[5] = system: human neutrophils; assay: iC3b staining on PGG β-glucan-bound neutrophils (flow cytometry, confocal microscopy); type: cell-based
Experimental: Binding of PGG β-glucan to neutrophils and PBMC was done as above. iC3b deposition on these cells was detected by staining with a neo-epitope specific anti-iC3b Ab and PE-conjugated goat anti-mouse IgG and analyzing by flow cytometry.
Enriched neutrophils, resuspended at 1×10^6 cells/mL in either RPMI supplemented with 20% serum or heat-inactivated serum, were mixed with PGG β-glucan before being applied to a 10 mm glass cover slip placed in the well of a 24-well plate. The plate was incubated in a 37° C., humidified 5% CO2 incubator for one hour. Unbound cells and PGG β-glucan were removed by washing with warmed PBS, and bound cells were subsequently fixed in 1% formaldehyde at room temp for 15 minutes. Cells were blocked with FCR blocking agent prior to staining with BFD IV and anti-iC3b monoclonal antibody for 30 minutes at 4° C., and followed by the secondary staining antibodies Cy5-conjugated goat anti-mouse IgM and Cy3-conjugated goat anti-mouse IgG at 4° C. for 30 minutes. Cells were penneabilized with 0.1% ice-cold TritonX-100 for three minutes on ice, stained with DAPI on ice for five minutes before mounting onto slides. Images were analyzed and acquired with Olympus FluoView 1000 IX2 Inverted confocal microscope. Images were adjusted equally in Adobe Photoshop (Adobe Systems Inc., San Jose, Calif.).

[6] = 2%, 5% or 10% autologous serum, 37° C., two hours

T1 sequence (P01024 749-1303 limits assumed): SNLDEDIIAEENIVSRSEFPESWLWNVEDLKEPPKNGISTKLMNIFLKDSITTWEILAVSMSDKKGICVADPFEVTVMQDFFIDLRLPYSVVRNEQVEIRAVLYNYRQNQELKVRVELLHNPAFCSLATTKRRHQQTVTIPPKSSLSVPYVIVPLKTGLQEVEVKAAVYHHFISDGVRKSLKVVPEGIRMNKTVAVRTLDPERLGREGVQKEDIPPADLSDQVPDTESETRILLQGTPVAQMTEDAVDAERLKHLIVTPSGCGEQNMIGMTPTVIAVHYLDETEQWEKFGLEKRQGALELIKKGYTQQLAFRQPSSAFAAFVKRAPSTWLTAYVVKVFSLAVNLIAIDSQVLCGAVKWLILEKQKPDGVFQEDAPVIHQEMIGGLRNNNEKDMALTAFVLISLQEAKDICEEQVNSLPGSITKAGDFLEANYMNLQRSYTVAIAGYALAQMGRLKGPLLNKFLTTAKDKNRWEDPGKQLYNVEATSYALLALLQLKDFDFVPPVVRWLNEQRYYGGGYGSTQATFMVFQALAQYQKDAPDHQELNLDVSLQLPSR
T1 sequence (P01024 23-667 partner limits assumed): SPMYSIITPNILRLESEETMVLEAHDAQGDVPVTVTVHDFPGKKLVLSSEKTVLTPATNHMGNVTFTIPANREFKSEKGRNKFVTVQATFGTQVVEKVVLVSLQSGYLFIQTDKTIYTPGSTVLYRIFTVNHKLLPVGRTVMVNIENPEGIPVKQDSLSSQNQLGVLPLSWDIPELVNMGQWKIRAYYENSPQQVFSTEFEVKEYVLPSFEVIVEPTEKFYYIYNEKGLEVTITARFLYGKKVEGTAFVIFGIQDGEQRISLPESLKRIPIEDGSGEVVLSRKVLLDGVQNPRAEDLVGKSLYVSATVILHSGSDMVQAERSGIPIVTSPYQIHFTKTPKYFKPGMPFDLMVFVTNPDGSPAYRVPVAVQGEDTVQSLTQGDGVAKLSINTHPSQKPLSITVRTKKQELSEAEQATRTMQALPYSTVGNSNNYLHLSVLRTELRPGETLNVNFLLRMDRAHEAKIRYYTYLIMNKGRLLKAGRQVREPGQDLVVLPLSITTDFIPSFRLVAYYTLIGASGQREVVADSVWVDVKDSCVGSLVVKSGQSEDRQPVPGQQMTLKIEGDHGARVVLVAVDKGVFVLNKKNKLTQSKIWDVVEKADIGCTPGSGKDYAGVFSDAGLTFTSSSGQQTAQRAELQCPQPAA
T1 sequence (P01024 1321-1663 partner limits assumed): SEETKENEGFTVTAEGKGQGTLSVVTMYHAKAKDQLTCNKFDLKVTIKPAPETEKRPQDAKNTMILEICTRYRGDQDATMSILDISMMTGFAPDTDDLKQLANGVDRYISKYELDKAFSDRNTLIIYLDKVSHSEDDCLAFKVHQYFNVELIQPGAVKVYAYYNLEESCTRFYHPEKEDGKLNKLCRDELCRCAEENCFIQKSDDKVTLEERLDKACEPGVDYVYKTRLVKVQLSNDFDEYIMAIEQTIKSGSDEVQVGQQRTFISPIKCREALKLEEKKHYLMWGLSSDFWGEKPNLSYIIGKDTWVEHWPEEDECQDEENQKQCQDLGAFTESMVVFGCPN

## β(1,6)-[poly-1,3)-D-glucopyranosyl]-poly-β(1,3)-D-glucopyranose [PGG β-glucan]
[1]
  Minimum concentration of β-glucan detected on the cells by the BfD IV detection system: 100 µg/mL
[1]; 200 μg/mL, 10% serum, 37° C.
  Incubation time of maximal binding: 30 to 60 min
[1]; [6]
  Percentage of serum at which maximal binding occurred: 10%
  Percentage of serum at which minimum binding occurred: 2%
[1]; 10% autologous serum, 37° C., two hours
  Concentration at which percentage of BfD IV positive cells reached a plateau: 200 µg/mL
[1]; 100, 200, 400 μg/mL, 10% autologous serum, 37° C., two hours
  Binding (MFI and percentage of BfD IV positive cells): bound to both neutrophils and monocytes
[1]; two hours at 4° C., room temperature or 37° C., 10% serum
  Incubation temperature of maximal binding: 37 °C
[2]
  Blocking of DTAF-labeled β-glucan staining by excess unlabeled glucan: blocked by excess unlabeled β-glucan
[3]; 10% HI serum vs regular serum, 100 μg/mL
  Binding in the presence of heat inactivated (HI) serum: abrogated
[3]; based on MFI, five donors
  Average percentage of binding inhibition in HI serum: 90%
  Range of percentage of binding inhibition in HI serum: 81-100%
[4]; HI serum 30 minutes at 37° C.
  Fold increase of iC3b detected on immobilized glucan compared to background: significantly less iC3b detected
[4]; regular serum 30 minutes at 37° C.
  Fold increase of iC3b detected on immobilized glucan compared to background: significantly higher
[5]; 200 μg/mL, 10% serum, 37° C., two hours
  iC3b staining on cells incubated with β-glucan vs serum alone: increased staining of iC3b
[5]; BfD IV and anti-iC3b double staining
  Co-localization of bound glucan and iC3b (confocal microscopy): co-localized
